Measured values: patent US12338261B2 (SUMITOMO PHARMA ONCOLOGY, INC., priority 2015, dated 2025)

Assay: Maximum tolerated acute dose in rats
[1] = rats, single oral dose 4.5 mg/kg
[2] = rats, single oral dose 18 mg/kg

Description: Acute (i.e. single dose) toxicology studies were performed in rats. Acute studies were performed in female Sprague Dawley rats using three animals per treatment group. […] Body weight measurements following oral dosing (see FIG. 4A), along with mortality, clinical observations, food consumption (see FIG. 4B), and complete blood counts (CBCs; see Table 12) were used to determine the maximum tolerated acute dose (MTDacute).

CN1CC[C@H](c2c(OP(=O)(O)O)cc(O)c3c(=O)cc(-c4ccccc4Cl)oc23)[C@H](O)C1 [Compound IB′, 2-(2-chlorophenyl)-5-hydroxy-8-(3-hydroxy-1-methylpiperidin-4-yl)-4-oxo-4H-chromen-7-yl dihydrogen phosphate]
MTDacute (female Sprague Dawley rats, single oral dose): 18 mg/kg | NOAEL (female, Sprague Dawley, rat, in vivo, po): 18 mg/kg | HCT [1]: 49.9% | MCH [1]: 19.7 pg | MCHC [1]: 35.9 g/dL | MCV [1]: 54.8 fL | PLT [1]: 37.1 10^3/μL | RBC [1]: 9.1 10^6/μL | RDWA [1]: 16.2 fL | WBC [1]: 17.9 10^3/μL | HCT (rats, single oral dose 9 mg/kg): 42.7% | MCH (rats, single oral dose 9 mg/kg): 19.5 pg | MCHC (rats, single oral dose 9 mg/kg): 36.6 g/dL | MCV (rats, single oral dose 9 mg/kg): 53.3 fL | PLT (rats, single oral dose 9 mg/kg): 35.0 10^3/μL | RBC (rats, single oral dose 9 mg/kg): 8.0 10^6/μL | RDWA (rats, single oral dose 9 mg/kg): 15.9 fL | WBC (rats, single oral dose 9 mg/kg): 15.6 10^3/μL | platelet counts versus normal range (rats, single oral dose 9 mg/kg): outside the normal range | HCT [2]: 31.2% | MCH [2]: 19.6 pg | MCHC [2]: 36.6 g/dL | MCV [2]: 53.5 fL | PLT [2]: 33.9 10^3/μL | RBC [2]: 5.9 10^6/μL | RDWA [2]: 15.7 fL | WBC [2]: 11.4 10^3/μL | abnormal food consumption patterns [2]: not observed | red and white blood cell counts [2]: Slightly reduced | Body weight loss (rats, single oral dose 36 mg/kg, preceding death): 13.1% | overt toxicity (rats, single oral dose 18, 9, or 4.5 mg/kg): No overt toxicity, including body weight change or diarrhea, was observed
